Assay results reported in patent publication US20150182583A1, “METHODS FOR TREATMENT AND PREVENTION OF TAUOPATHIES BY INHIBITING ENDOTHELIN RECEPTORS” (Board of Regents, The University of Texas System, priority 2012, published 2015).
“Also recorded” adds a separate entry of the source. Non-standard residues stand in square brackets, D forms with d. Residues, ends and D or L forms follow the SMILES beside them. dGly(5-dibenzosuberyl) = N[C@@H](C(=O)O)C1c2ccccc2CCc2ccccc21

Key:
[1] = Body weight of mice treated with paclitaxel with or without PD145065; assay type: in vivo, mouse
Experimental: Studies to evaluated prevention and/or treatment of chemo-brain by PD145065 were performed. Female athymic nude mice (NCI-nu) were used in these studies. Mice were used in these experiments in accordance with institutional guidelines when they were 14-16 weeks old. Mice were randomized as follows;
Mice showing weight loss, dehydration (poor skin tugor) or poor movement (poor oral intake, decreased ambulation, etc.) were defined as symptomatic mice.
Prevention and/or treatment of Chemo-brain by PD145065 was evaluated via the following protocol. Treatment continued for 12 weeks and treatment and prevention groups were defined as follows: […]
(1) Treatment group—mice receiving TMZ or taxol (group 3 or 4) and showing symptoms defined above for two consecutive weeks began to receive PD145065;
(3) Prevention group—mice were receiving (PD+TMZ) or (PD+taxol) for 12 weeks (group 5 or 6).

TAU [2] = assay: Chronic hypoxia (hypoxia chamber) in mice, TAU immunohistochemistry; assay type: in vivo, mouse; settings: hypoxia chamber 1-3 days; daily i.p. injections, or pretreatment 7 days before 48 hours of hypoxia
Experimental: (§1) Mice were placed in a sealed plexiglass chamber with controlled input of oxygen-nitrogen gas to establish an oxygen level of 5.705% oxygen. One to 3 days later, the mice are euthanized or placed in room air (normoxia). The brains are harvested, fixed in formalin, or frozen for histology/immunohistochemistry examination. Staining for GFAP (astrocytes), TAU, endothelin receptor A or B (phosphorylation) was carried out.
Mice were placed in a hypoxia chamber for 1-3 days are taken out and divided into 2 groups: (1) treated with PD145065 (dual endothelin receptor inhibitor), or (2) saline. Treatments are by daily i.p. injections. The brains of control and treated mice are harvested 2-5 days later and processed for histological examination Immunohistochemistry for GFAP, TAU, ETAR, and ETBR (phosphorylation) was carried out.
as §1, with “The following methods were used for the chronic hypoxia (hypoxia chamber) experiments. Mice” for “Mice”, “were” for “are”, “phosphorylation” for “(phosphorylation)”, “out. […]” for “out.”

ETA and ETB receptors = assay: Immunohistochemistry of endothelin receptor phosphorylation (with the protection assay); assay type: cell-based; settings: FIG. 15
Description: Next the inventor used the compound PD 145065, which is a dual endothelin receptor inhibitor (antagonist), in further experiments. […] PD145065 may be administered orally to mice. Based on the in vitro data, it is anticipated that PD145065 may be used to decrease TAU in the brain in vivo.

MDA231 = assay: Tumor cell-astrocyte protection assay (MDA231 protection assay); assay type: cell-based, human; settings: FIG. 15
[3] = tested on: ET-1 stimulated astrocytes; assay: Real-time PCR of APOE/TAU mRNA in ET-1 stimulated astrocytes; assay type: cell-based, murine; settings: ET-1 (100 nM) 24 hr; PD145065 (1 μM) added 2 hrs prior to ET-1; FIG. 12
Experimental: FIG. 12: Expression level of APOE and TAU expression level in control astrocytes and astrocytes treated with BQ123 plus […] or PD145065. Treatment groups were as follows: Control, ET-1 (100 nM), ET-1+BQ123/BQ788 (1 μM), ET-1+PD145065 (1 μM). Cells were treated with ET-1 for 24 hr. BQ123, BQ788 or PD145065 was added 2 hrs prior to ET-1 stimulation.
(§2) To determine whether ETs upregulation in astrocytes culture with tumor cells, we performed in vitro coculture experiments. Astrocytes and NIH 3T3 fibroblasts were transfected with green fluorescent protein (GFP) genes. […] RT-PCR was performed using TaqMan® Universal PCR MasterMix and quantified with an ABI 7500 real time PCR system (Applied Biosystems, Foster City, Calif.). […] Relative mRNA expression was calculated according to the AACt method, and expressed as mean±S.D. of mRNA relative to that of control.
as §2, with “Astrocytes” for “To determine whether ETs upregulation in astrocytes culture with tumor cells, we performed in vitro coculture experiments. Astrocytes”, “method” for “method,”

[4] = tested on: endothelin receptors A and B; assay: Mouse model of brain trauma, endothelin receptor phosphorylation; assay type: in vivo; settings: 10 mg/kg/day i.p. for 5 days prior to wounding, continued 3 days after
GFAP = assay: Mouse model of brain trauma, GFAP staining; assay type: in vivo; settings: 10 mg/kg/day i.p. for 5 days prior to wounding, continued 3 days after
Experimental: (§3) A mouse model of brain trauma was used to evaluate the effect of a dual endothelin receptor antagonist (PD 145065) on TAU expression after a brain trauma. A parenchyma mouse model of brain trauma was used such that mice received a stereotaxically administered wound to the brain Immunochemistry was performed on brain samples to evaluate GFAP and TAU expression.
(§4) The mice were euthanatized 1, 2, or 4 days after creating the wound in the brain parenchyma. The brains were removed, fixed in formalin and stained for GFAP or (GFAP and TAU) using immunofluorescent staining.
(§5) Mice were pretreated with PD145065 10 mg/kg/day i.p. injection for 5 days prior to brain wounding. Control mice received saline injections. Treatment continued for 3 days after wounding. The brains were harvested 3 days after wounding and immunofluorescent staining immunohistochemistry experiments were performed.

TAU [5] = assay: Mouse model of brain trauma (parenchymal wound), TAU immunofluorescent staining; assay type: in vivo; settings: 10 mg/kg/day i.p. for 5 days prior to wounding, continued 3 days after; brains harvested 3 days after wounding
Description: Brain parenchymal wound was created by inserting a needle (32 G-21 G) by stereotactic injection unit. In brief, a mouse was anesthetized with Nembutal ([…]) and fixed in the stereotactic injection unit. Skin incision was made in the forehead and a hole was made in the calvaria with a 21 G needle. Injection needle was inserted into the brain parenchyma (4-mm depth) and withdrawn. Hole was blocked with bone wax and skin incision was closed with skin staples.
as §3, §4, §5

TAU [6] = assay: Mouse model of chemo-brain (paclitaxel or TMZ), TAU immunohistochemistry; assay type: in vivo; settings: for TAU production/expression in brain caused by the chemotherapeutic: mice bearing brain cancer (LN229 GBM) or normal mice, paclitaxel 8 mg/kg i.p. twice per week, TMZ 7.5 mg/kg p.o. daily
Experimental: The following methods were used to test for the in vivo effect of a dual endothelin receptor on a mouse model of chemo-brain. PD145065: SIGMA (SCP0143, 5 mg) was reconstituted in PBS containing 0.1% BSA. Temozolomide (TMZ): SIGMA (T2577-100 MG), was reconstituted in DMSO (10 mg/mL) with sonication and diluted in HBSS before treatment TAXOL (paclitaxel): Hospira (NDC 61703-342-09, 6 mg/mL) was diluted in saline before treatment. Mice were treated for 6 weeks with either TMZ (7.5 mg/kg, p.o., daily) or paclitaxel (8 mg/kg, i.p., twice per week) with or without PD145065 (10 mg/kg, i.p., daily). Treatment groups were as follows:
Mice were euthanized and the brains were collected and frozen (OCT) or placed in formalin and embedded in paraffin and then processed for IHC. Female nude mice were treated with Taxol (8 mg/kg) i.p. twice per week for six weeks. […] Female nude mice were treated orally with 7.5 mg/kg TMZ every day for six weeks.

phosphorylation of ETA and ETB receptors (ETA and ETB receptors)	TAU production/expression in brain caused by the chemotherapeutic (TAU [6])	TAU production/expression in brain caused by the chemotherapeutic (TAU [6]; listed as Taxol)	TAU production/expression in brain caused by the chemotherapeutic (TAU [6]; listed as TMZ)	SMILES	weight loss associated with paclitaxel, prevention (co-administration) ([1]; PD 10 mg/kg i.p. daily plus taxol 8 mg/kg i.p. twice per week, FIG. 23)	weight loss associated with paclitaxel, treatment group ([1]; PD145065 given to mice receiving paclitaxel beginning on day 49, FIG. 22)	TAU expression in brain resulting from hypoxia (TAU [2])	blocking the ability of astrocytes protection of tumor cells from chemotherapy (MDA231)	APOE/TAU mRNA expression [3]	phosphorylation of endothelin receptors A and B (ETAR, ETBR) in wounded brain [4]	GFAP in wounded brain (GFAP)	TAU expression / TAU positive cells in brain after wound (TAU [5])	TAU expression in brain of mice treated with paclitaxel or TMZ (TAU [6]; PD145065 10 mg/kg i.p. daily, 6 weeks, TMZ 7.5 mg/kg p.o. daily or paclitaxel 8 mg/kg i.p. twice per week)	body weight of paclitaxel-treated mice ([1]; paclitaxel alone, FIG. 22)
can prevent phosphorylation	–	–	–	CC[C@H](C)[C@H](NC(=O)[C@H](CC(=O)O)NC(=O)[C@H](CC(C)C)NC(=O)[C@H](NC(C)=O)C1c2ccccc2CCc2ccccc21)C(=O)N[C@H](C(=O)N[C@@H](Cc1c[nH]c2ccccc12)C(=O)O)[C@@H](C)CC [PD145065, N-Acetyl-α-[10,11-Dihydro-5H-dibenzo[a,d]cycloheptadien-5-yl]-D-Gly-Leu-Asp-Ile-Ile-Trp] (Ac-[dGly(5-dibenzosuberyl)]LDIIW-OH)	completely inhibit the weight loss	reversal of the weight loss	inhibited TAU expression; also recorded: significantly lower than in the brains of control mice; also recorded: reduced tau expression; also recorded: significant decrease in TAU expression	as effective as the combination of BQ123 and BQ788	observed to have an effect	inhibited phosphorylation; also recorded: reduced phosphorylation or be not phosphorylated	unchanged; also recorded: contain activated (GFAP-positive) astrocytes	not in brains of mice pretreated; also recorded: significantly diminished or eliminated; also recorded: negative; also recorded: reduced tau expression	significantly reduced TAU expression	–
–	result in the production of TAU	high expression of TAU	–	CC(=O)O[C@H]1C(=O)[C@@]2(C)[C@H]([C@H](OC(=O)c3ccccc3)[C@]3(O)C[C@H](OC(=O)[C@H](O)[C@@H](NC(=O)c4ccccc4)c4ccccc4)C(C)=C1C3(C)C)[C@]1(OC(C)=O)CO[C@@H]1C[C@@H]2O [paclitaxel]	–	–	–	–	–	–	–	–	–	loss of weight
–	result in the production of TAU	–	high expression of TAU	Cn1nnc2c(C(N)=O)ncn2c1=O [temozolomide]	–	–	–	–	–	–	–	–	–	–
